Assay results from ChEMBL document CHEMBL1201862, “PubChem BioAssay data set” (2004).
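96-well plates; 48 h exposure; 5 concentrations. Endpoints by linear interpolation between flanking doses. Not reached: highest tested concentration assigned. Abbreviation: GI50, concentration required for 50% inhibition of growth.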 Calls of active or inactive are those of the source. Rule as the data show it: active = GI50 up to about 1.1 µM and inactive = higher.

Columns and labels:
Test in all cases: NCI-60 cell line screen, 48 h
UO-31 = system: UO-31
ACHN = system: ACHN
MDA-MB-231 = system: MDA-MB-231
NCI-H460 = system: NCI-H460
T47D = system: T47D
HCC 2998 = system: HCC 2998
CAKI-1 = system: CAKI-1
SNB-75 = system: SNB-75
UACC-62 = system: UACC-62
TK-10 = system: TK-10
UACC-257 = system: UACC-257
COLO 205 = system: COLO 205
EKVX = system: EKVX
HCT-15 = system: HCT-15
K562 = system: K562
A549 = system: A549
786-0 = system: 786-0
SK-MEL-2 = system: SK-MEL-2
SN12C = system: SN12C

Row | Compound | GI50 (UO-31) | GI50 (ACHN) | GI50 (MDA-MB-231) | GI50 (NCI-H460) | GI50 (T47D) | GI50 (HCC 2998) | GI50 (CAKI-1) | GI50 (SNB-75) | GI50 (UACC-62) | GI50 (TK-10) | GI50 (UACC-257) | GI50 (COLO 205) | GI50 (EKVX) | GI50 (HCT-15) | GI50 (K562) | GI50 (A549) | GI50 (786-0) | GI50 (SK-MEL-2) | GI50 (SN12C)
1 | N#CC1=C(N)OC2=C(CCCc3ccc([N+](=O)[O-])cc32)C1c1ccccc1 (stereo not given) | 8.79 µM (inactive) | 10.8 µM (inactive) | 17.7 µM (inactive) | 4.49 µM (inactive) | 6.24 µM (inactive) | 2.18 µM (inactive) | 9.25 µM (inactive) | 82.8 µM (inactive) | 1.98 µM (inactive) | 12.4 µM (inactive) | 5.13 µM (inactive) | 3.69 µM (inactive) | 6.19 µM (inactive) | 2.45 µM | 2.57 µM (inactive) | 6.21 µM (inactive) | 9.98 µM (inactive) | 4.58 µM (inactive) | 6 µM (inactive)
2 | O=C1/C(=C/c2ccccc2)CCC/C1=C\c1ccc(O)c(CN2CCCCC2)c1 | 6.92 µM (inactive) | 1.81 µM (inactive) | 2.77 µM (inactive) | 4.66 µM (inactive) | 4.88 µM (inactive) | 2.39 µM (inactive) | 8.07 µM (inactive) | 6.37 µM (inactive) | 3.59 µM (inactive) | 15.2 µM (inactive) | 5.53 µM (inactive) | 5.89 µM (inactive) | 6.75 µM (inactive) | 1.78 µM | 3.27 µM (inactive) | 7.59 µM (inactive) | 1.69 µM (inactive) | 11.9 µM (inactive) | 2.82 µM (inactive)
3 | O=C1c2cc([N+](=O)[O-])ccc2-c2cccc(F)c21 | 85.3 µM (inactive) | > 100 µM (inactive) | > 100 µM (inactive) | 89.3 µM (inactive) | 23.2 µM (inactive) | 80.2 µM (inactive) | > 100 µM (inactive) | > 100 µM (inactive) | 56.1 µM (inactive) | > 100 µM (inactive) | 65.3 µM (inactive) | > 100 µM (inactive) | 18.9 µM (inactive) | 37.1 µM | 43 µM (inactive) | > 100 µM (inactive) | > 100 µM (inactive) | 21.2 µM (inactive) | > 100 µM (inactive)
4 | O=C1/C(=C/c2cccc(O)c2)COc2ccccc21 | 10.5 µM (inactive) | 1.78 µM (inactive) | 8.2 µM (inactive) | 20.8 µM (inactive) | 6.47 µM (inactive) | 0.029 µM (active) | 3.44 µM (inactive) | 15.5 µM (inactive) | 3.88 µM (inactive) | 15.4 µM (inactive) | 2.64 µM (inactive) | 13.5 µM (inactive) | 16.5 µM (inactive) | 1.42 µM | 2.78 µM (inactive) | 20 µM (inactive) | 4.69 µM (inactive) | 18 µM (inactive) | 8.04 µM (inactive)
5 | C/C=C\C(C)=C/C(C)C(=O)CC(O)CC1CC(=O)NC(=O)C1 (stereo not given) | 20.1 µM (inactive) | 17.5 µM (inactive) | > 42.3 µM (inactive) | 14.8 µM (inactive) | 28.1 µM (inactive) | 33.5 µM (inactive) | 7.13 µM (inactive) | 5.27 µM (inactive) | 9.73 µM (inactive) | 49.2 µM (inactive) | 22.2 µM (inactive) | 17.1 µM (inactive) | > 100 µM (inactive) | 13.4 µM | 20.5 µM (inactive) | 21.5 µM (inactive) | 13.5 µM (inactive) | 13.6 µM (inactive) | 13 µM (inactive)
6 | CO/C(N)=C(C#N)/N=C/c1ccccc1 | 89.5 µM (inactive) | > 100 µM (inactive) | > 100 µM (inactive) | > 100 µM (inactive) | > 100 µM (inactive) | > 100 µM (inactive) | > 100 µM (inactive) | > 100 µM (inactive) | 48 µM (inactive) | > 100 µM (inactive) | > 100 µM (inactive) | 71.9 µM (inactive) | 66.7 µM (inactive) | > 100 µM | 58.6 µM (inactive) | > 100 µM (inactive) | > 100 µM (inactive) | > 100 µM (inactive) | > 100 µM (inactive)
7 | CCOc1cc2c(OCc3ccccc3)cc3c4cc(OC)c(OC)cc4c[n+](C)c3c2cc1OC | 25.3 µM (inactive) | 19.4 µM (inactive) | 2.29 µM (inactive) | 4.97 µM (inactive) | 0.446 µM (active) | 1.57 µM (inactive) | 25.4 µM (inactive) | 0.442 µM (active) | 1.27 µM (inactive) | 10.3 µM (inactive) | 1.62 µM (inactive) | 0.259 µM (active) | 17.8 µM (inactive) | 59.6 µM | 1.18 µM (inactive) | 4.82 µM (inactive) | 2.74 µM (inactive) | 1.22 µM (inactive) | 0.471 µM (active)
8 | C=C1C(=O)OC2(C)CCC1CC1OC1(C)CCC=C(C)CCC2O (stereo not given) | 57.7 µM (inactive) | > 100 µM (inactive) | > 100 µM (inactive) | 46.9 µM (inactive) | > 100 µM (inactive) | > 100 µM (inactive) | > 100 µM (inactive) | > 100 µM (inactive) | 61.9 µM (inactive) | > 100 µM (inactive) | > 100 µM (inactive) | > 100 µM (inactive) | > 100 µM (inactive) | 69.3 µM | 31 µM (inactive) | > 100 µM (inactive) | > 100 µM (inactive) | 75 µM (inactive) | 37.1 µM (inactive)
9 | Cc1ccccc1C1CC(=O)CC(c2ccccc2C)C12C(=O)NC(=S)NC2=O (stereo not given) | 17.9 µM (inactive) | 18.4 µM (inactive) | 31.3 µM (inactive) | 19.4 µM (inactive) | 42.1 µM (inactive) | 9.64 µM (inactive) | 58.2 µM (inactive) | 20.8 µM (inactive) | 18.7 µM (inactive) | 39.4 µM (inactive) | 22 µM (inactive) | 19.5 µM (inactive) | 47.2 µM (inactive) | 20.7 µM | 39.5 µM (inactive) | 29.5 µM (inactive) | 34.9 µM (inactive) | 13.4 µM (inactive) | 26.4 µM (inactive)
10 | O=[N+]([O-])c1ccc(-n2nc3ccc4nonc4c3n2)cc1 | 21.3 µM (inactive) | 41.3 µM (inactive) | > 100 µM (inactive) | 37.3 µM (inactive) | 29.6 µM (inactive) | 97.3 µM (inactive) | 22.7 µM (inactive) | 11.1 µM (inactive) | 32.5 µM (inactive) | 18.4 µM (inactive) | > 100 µM (inactive) | > 100 µM (inactive) | 58.3 µM (inactive) | > 100 µM | > 100 µM (inactive) | 72.1 µM (inactive) | 28.1 µM (inactive) | 47.9 µM (inactive) | > 100 µM (inactive)
11 | Nc1nc(Cl)cc(NCC2(CO)CC(Cc3ccccc3)C2)n1 (stereo not given) | 23.4 µM (inactive) | 32 µM (inactive) | 42.3 µM (inactive) | 22.5 µM (inactive) | 1.34 µM (inactive) | 30.7 µM (inactive) | > 73.5 µM (inactive) | 28.6 µM (inactive) | 27.5 µM (inactive) | 25.6 µM (inactive) | 31.5 µM (inactive) | 29.8 µM (inactive) | 3.35 µM (inactive) | 9.55 µM | 2.92 µM (inactive) | 19.1 µM (inactive) | > 60.8 µM (inactive) | 22.3 µM (inactive) | > 92.3 µM (inactive)
12 | c1coc(C2=Nc3cccc4cccc(c34)N2)c1 | 16.2 µM (inactive) | 22.1 µM (inactive) | 34.6 µM (inactive) | 34.8 µM (inactive) | 8.49 µM (inactive) | 34.9 µM (inactive) | 35.4 µM (inactive) | 65.5 µM (inactive) | 35.5 µM (inactive) | > 100 µM (inactive) | 41.4 µM (inactive) | 14.8 µM (inactive) | 55.2 µM (inactive) | 26.5 µM | 38.7 µM (inactive) | 60.3 µM (inactive) | 53.3 µM (inactive) | 29.3 µM (inactive) | 28.4 µM (inactive)
13 | COC(=O)[C@@H]1C[C@H]([Se]c2ccccc2)CN1C(=O)OCc1ccccc1 | 24.4 µM (inactive) | 28.1 µM (inactive) | 48.9 µM (inactive) | 24.8 µM (inactive) | 16 µM (inactive) | 87.9 µM (inactive) | 36 µM (inactive) | 63.4 µM (inactive) | 15.1 µM (inactive) | 53.5 µM (inactive) | 31.4 µM (inactive) | 23.4 µM (inactive) | 39.2 µM (inactive) | 30.5 µM | 26.8 µM (inactive) | 29.6 µM (inactive) | 41.7 µM (inactive) | 19.5 µM (inactive) | 45.5 µM (inactive)
14 | O=c1[nH]c2ccccc2c2oc(-c3ccccc3)nc12 | > 100 µM (inactive) | > 100 µM (inactive) | 17.3 µM (inactive) | > 100 µM (inactive) | 51.2 µM (inactive) | > 100 µM (inactive) | 18.9 µM (inactive) | 20.2 µM (inactive) | 88.3 µM (inactive) | 54.6 µM (inactive) | > 100 µM (inactive) | 18.6 µM (inactive) | > 100 µM (inactive) | > 100 µM | 36.1 µM (inactive) | 47.6 µM (inactive) | 23.6 µM (inactive) | 24.2 µM (inactive) | 16.5 µM (inactive)
15 | CN(C)CCCCN1c2ccccc2Sc2cc(N=[N+]=[N-])ccc21 | 1.83 µM (inactive) | 1.99 µM (inactive) | 1.71 µM (inactive) | 1.89 µM (inactive) | 1.94 µM (inactive) | 1.89 µM (inactive) | 1.84 µM (inactive) | 1.8 µM (inactive) | 1.85 µM (inactive) | 2.02 µM (inactive) | 1.83 µM (inactive) | 1.69 µM (inactive) | 4.15 µM (inactive) | 1.85 µM | 1.88 µM (inactive) | 1.79 µM (inactive) | 1.69 µM (inactive) | 1.97 µM (inactive) | 3.48 µM (inactive)
